Results reported in patent US12692274B2, “Tetrahydroisoquinoline derivatives for the treatment of red blood disorders and inflammatory diseases” (Sanofi, priority 2020, dated 2026).
Values joined by “and” are separate entries in the source; they are usually repeats but may differ in a detail not shown here. Identical values can stand only once.

What was measured:
[1] = target: HIS-Keap1 full length / Biotin-Nrf2 (16-mer) (Homo sapiens, UniProt Q14145); test: biochemical
[2] = system: NQO1 activation in BEAS-2B cells; test: BEAS-2B cellular MTT assay of NQO1 activation, 0% HSA; format: cell-based
Method in brief: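 BEAS-2B cells grown in BEBM with BEGM SingleQuots (no GA-1000), kept below 70% confluence, seeded on collagen plates at a density giving 95-100% confluence after 48 h. Plates seeded in medium without HSA (0% HSA condition).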

[3] = system: NQO1 activation in BEAS-2B cells; test: BEAS-2B cellular MTT assay of NQO1 activation, 0.3% HSA; format: cell-based
Method in brief: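 BEAS-2B cells (<70% confluent in culture, BEBM/SingleQuots without GA-1000) seeded in collagen plates with 0.3% or 0% HSA, reaching 95-100% confluency after 48 h at 37 °C, 5% CO2; MTT read-out.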

[4] = Homo sapiens, Serum Free W, read-out: BEAS EC50 (nM) Serum Free W
[5] = Serum Free W, read-out: BEAS EC50 (nM) Serum Free W
[6] = BEAS+ W, read-out: BEAS+ W EC50
[7] = Homo sapiens, BEAS+ W, read-out: BEAS+ W EC50
[8] = Homo sapiens, serum free, read-out: BEAS EC50 (nM) serum free
[9] = serum free, read-out: BEAS EC50 (nM) serum free
[10] = Homo sapiens, BEAS+, read-out: BEAS+ EC50

Chain of HIS-Keap1 full length / Biotin-Nrf2 (16-mer) (Q14145 whole entry): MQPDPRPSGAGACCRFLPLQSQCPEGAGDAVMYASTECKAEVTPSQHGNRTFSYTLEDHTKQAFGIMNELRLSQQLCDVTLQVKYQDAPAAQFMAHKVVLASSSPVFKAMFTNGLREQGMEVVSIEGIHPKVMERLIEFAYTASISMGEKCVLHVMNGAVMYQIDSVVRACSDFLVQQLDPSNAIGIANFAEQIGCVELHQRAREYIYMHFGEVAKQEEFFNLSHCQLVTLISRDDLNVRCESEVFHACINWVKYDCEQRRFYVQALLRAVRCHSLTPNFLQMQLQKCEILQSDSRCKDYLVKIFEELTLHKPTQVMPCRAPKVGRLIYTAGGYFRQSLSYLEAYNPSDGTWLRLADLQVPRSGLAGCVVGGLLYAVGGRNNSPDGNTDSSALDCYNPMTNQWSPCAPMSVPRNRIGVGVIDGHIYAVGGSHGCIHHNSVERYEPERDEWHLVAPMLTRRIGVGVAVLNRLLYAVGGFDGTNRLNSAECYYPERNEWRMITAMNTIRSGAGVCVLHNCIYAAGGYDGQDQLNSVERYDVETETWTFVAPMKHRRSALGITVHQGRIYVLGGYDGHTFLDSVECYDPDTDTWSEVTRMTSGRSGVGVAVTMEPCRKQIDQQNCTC

| SMILES | IC50 [1] | EC50 [2, 4] [nM] | EC50 [2, 5] [nM] | EC50 [3, 6] | EC50 [3, 7] [nM] | EC50 [2, 8] [nM] | EC50 [2, 9] [nM] | EC50 [3, 10] [nM] | EC50 ([3]; BEAS+, read-out: BEAS+ EC50) [nM] |
| --- | --- | --- | --- | --- | --- | --- | --- | --- | --- |
| Cc1c2cnc3c1nnn3CCCCCCc1cccc(c1)C(=O)N1CCc3ccc(cc3C1)C2CC(=O)O (stereo not shown) [Compound 355] | 9.1 nM and 9.3 nM | 810 | 1300 | 3860 nM | 4700 | – | – | – | – |
| Cc1c2ccc3c1nnn3CCCOCCc1ccc(c(F)c1)C(=O)N1CCc3ccc(cc3C1)[C@H]2CC(=O)O [Compound 357] | 11.4 nM and 11 nM | > 1000 | 969 | 1710 nM | 1940 | – | – | – | – |
| Cc1c2ccc3c1nnn3CCCCc1ccc3c(cn(C)c3c1)C(=O)N1CCc3ccc(cc3C1)C2CC(=O)O (stereo not shown) [Compound 359] | 7.4 nM and 8.1 nM | > 1000 | – | – | > 10000 | – | – | – | – |
| Cc1c2ccc3c1nnn3C/C=C/COCc1ccc(c(F)c1)C(=O)N1CCc3ccc(cc3C1)C2CC(=O)OCCO (stereo not shown) [Compound 361] | 918 nM and 740 nM | > 1000 | – | 1280 nM | 1660 | – | – | – | – |
| Cc1c2ccc3c1nnn3CCCCCc1ccc3c(c1)c(cn3C)C(=O)N1CCc3ccc(cc3C1)C2CC(=O)O (stereo not shown) [Compound 362, 2-(5,33-dimethyl-2-oxo-1,5,15,16,17-pentazaheptacyclo[22.5.3.26,9.118,22.03,7.015,19.027,31]pentatriaconta-3,6,8,16,18(33),19,21,24(32),25,27(31),34-undecaen-23-yl)acetic Acid] | 50 nM and 47.3 nM | – | – | – | – | 3250 | 3760 | > 10000 | – |
| Cc1c2ccc3c1nnn3CCOCCCc1ccc(c(F)c1)C(=O)N1CCc3ccc(cc3C1)[C@@H]2CC(=O)O [Compound 364] | 1.7 nM and 1.6 nM | 56 | 68.3 | 92.6 nM | 98.8 | – | – | – | – |
| Cc1c2ccc3c1nnn3CCOC/C=C/c1ccc(c(F)c1)C(=O)N1CCc3ccc(cc3C1)C2CC(=O)O (stereo not shown) [Compound 365] | 3.4 nM and 3.6 nM | 90 | 171 | 214 nM | 188 | – | – | – | – |
| Cc1c2ccc3c1nnn3CCCOCCOc1cc(F)c(c(F)c1)C(=O)N1CCc3ccc(cc3C1)[C@@H]2[C@H](C)C(=O)O [Compound 366] | 5.6 nM and 5.3 nM | – | – | – | – | 580 | 442 | 1070 | 1180 |
| Cc1c2ccc3c1nnn3CCCOCCOc1cc(F)c(c(F)c1)C(=O)N1CCc3ccc(cc3C1)[C@@H]2[C@@H](C)C(=O)O [Compound 367] | 0.4 nM | – | – | – | – | 10.3 | 12.5 | 12.2 | 12.3 |
| Cc1c2ccc3c1nnn3CCCOCCOc1ccc(c(F)c1)C(=O)N1CCc3ccc(cc3C1)[C@@H]2[C@H](C)C(=O)O [Compound 369] | 13.2 nM and 14 nM | – | – | – | – | 2010 | 1930 | 2080 | 2230 |
| Cc1cc2ccc1C(=O)N1CCc3ccc(cc3C1)[C@H]([C@H](C)C(=O)O)c1ccc3c(nnn3CCCOCCO2)c1C [Compound 370] | 4.3 nM and 4.2 nM | – | – | – | – | 1480 | 1350 | 1640 | 1710 |
| Cc1cc2ccc1C(=O)N1CCc3ccc(cc3C1)[C@H]([C@@H](C)C(=O)O)c1ccc3c(nnn3CCCOCCO2)c1C [Compound 371] | 1.6 nM and 1.7 nM | – | – | – | – | 21.3 | 22.1 | 23.6 | 28.8 |
| Cc1c2ccc3c1nnn3CCCCCn1cc(c3ccccc31)C(=O)N1CCc3ccc(cc3C1)C2CC(=O)O (stereo not shown) [Compound 372] | 0.2 nM | – | – | – | – | 994 | 1020 | 1630 | 861 |
| Cc1c2ccc3c1nnn3CCCCCCn1cc(c3ccccc31)C(=O)N1CCc3ccc(cc3C1)C2CC(=O)O (stereo not shown) [Compound 373] | 3.6 nM and 3.9 nM | – | – | – | – | 2070 | 2030 | 2030 | 3140 |
| Cc1c2ccc3c1nnn3CC/C=C/Cc1ccc(c(F)c1)C(=O)N1CCc3ccc(cc3C1)C2C(C)C(=O)O (stereo not shown) [Compound 376] | 1.3 nM and 1.4 nM | 2.1 | 2.3 | 4.5 nM and 5.5 nM | 3.9 | – | – | – | – |
| Cc1c2ccc3c1nnn3CCCCCCOc1ncc(cn1)C(=O)N1CCc3ccc(cc3C1)C2CC(=O)O (stereo not shown) [Compound 377] | 5.7 nM and 5.8 nM | – | – | – | – | 2940 | 2650 | 3170 | 3210 |
| Cc1c2ccc3c1nnn3CCCCCCOc1ccc(cn1)C(=O)N1CCc3ccc(cc3C1)C2CC(=O)O (stereo not shown) [Compound 378] | 7.7 nM and 8 nM | – | – | – | – | 133 | 139 | 213 | 155 |
| Cc1c2ccc3c1nnn3CCCCCCOc1cnc(cn1)C(=O)N1CCc3ccc(cc3C1)C2CC(=O)O (stereo not shown) [Compound 379, 2-(34-methyl-22-oxo-17-oxa-8,9,10,19,23,32-hexazahexacyclo[21.5.3.218,21.13,7.06,10.026,30]tetratriaconta-1(29),3,5,7(34),8,18,20,26(30),27,32-decaen-2-yl)acetic Acid] | 5.2 nM and 5.4 nM | – | – | – | – | 158 | 147 | 206 | 193 |
| Cc1c2ccc3c1nnn3CCCCCCOc1ccc(nn1)C(=O)N1CCc3ccc(cc3C1)C2CC(=O)O (stereo not shown) [Compound 380] | 5.9 nM and 5.4 nM | – | – | – | – | 1460 | 1390 | 1230 | 1440 |
| Cc1c2ccc3c1nnn3CCCOCCOc1ccc(c(F)c1)C(=O)N1CCc3ccc(cc3C1)C2CC(=O)O (stereo not shown) [Compound 383] | 0.9 nM | – | – | – | – | 179 | 162 | 196 | 187 |
| Cc1c2ccc3c1nnn3C/C=C/COCc1ccc(c(F)c1)C(=O)N1CCc3ccc(cc3C1)C2CC(=O)O (stereo not shown) [Compound 386] | 1.9 nM and 2 nM | – | – | – | – | 90.3 | 89 | 123 | 105 |
| Cc1c2ccc3c1nnn3CCCCOCc1ccc(c(F)c1)C(=O)N1CCc3ccc(cc3C1)C2CC(=O)O (stereo not shown) [Compound 387] | 1.5 nM and 1.7 nM | – | – | – | – | 95.9 | 75.2 | 62.6 | 90.3 |
| Cc1c2ccc3c1nnn3CCCCCOc1ccc3ccc(cc3c1)C(=O)N1CCc3ccc(cc3C1)C2CC(=O)O (stereo not shown) [Compound 388] | 1.6 nM | – | – | – | – | 51.4 | 44.2 | 464 | 876 |
| Cc1cc2ccc1C(=O)N1CCc3ccc(cc3C1)[C@H](CC(=O)O)c1ccc3c(nnn3CCC/C=C/C2)c1C [Compound 389] | 1.8 nM and 1.9 nM | – | – | – | – | 147 | 153 | 231 | 409 |
| O=C(O)CC1c2ccc(cc2)OCCCCCCOc2ccc(cc2)C(=O)N2CCc3ccc1cc3C2 (stereo not shown) [Compound 391] | 276 nM and 265 nM | – | – | – | – | 8.8 | 7.9 | 2060 | 1950 |
| Cc1cc2ccc1C(=O)N1CCc3ccc(cc3C1)[C@@H](CC(=O)O)c1ccc3c(nnn3CCC/C=C/C2)c1C [Compound 392] | 0.5 nM | – | – | – | – | 10.6 | 10.3 | 13.7 | 15.5 |
| Cc1c2ccc3c1nnn3CCCCCn1ccc3ccc(cc31)C(=O)N1CCc3ccc(cc3C1)C2CC(=O)O (stereo not shown) [Compound 393] | 3.8 nM and 4.3 nM | – | – | – | – | 2450 | 2110 | 1890 | 2250 |
| Cc1c2ccc3c1nnn3CCCCCCn1ccc3ccc(cc31)C(=O)N1CCc3ccc(cc3C1)C2CC(=O)O (stereo not shown) [Compound 394] | 9 nM and 10.4 nM | – | – | – | – | 3100 | 2900 | 2690 | 2860 |
